Data reported in patent EP4488279A1, “SUBSTITUTED HEXAHYDRO-2H-PYRAZINO[1,2-A]PYRAZIN-1(6H)-ONE DERIVATIVES AS ACTIVATORS OF HUMAN CASEINOLYTIC PROTEASE P (HSCLPP)” (Centro Atlantico del Medicamento S.A (Ceamed, S.A), priority 2023, dated 2025).
Where two headings read alike, the source gives them in different places.

Tests used:
Yeast + HsCIpP = test: Yeast growth inhibition screen, yeast expressing human ClpP; type: cell-based; details: Saccharomyces cerevisiae, 24 h, read-out: Yeast + HsCIpP GI50
Text: This technique allows to directionally assemble several DNA fragments into one single DNA piece. It is based on plasmid libraries that share the same DNA backbone but differ in the type of the insert. The assembly of the final cassette is based on the "Golden Gate Cloning" method. Human CLPP gene sequence (codon-optimized for yeast translation) was amplified with well-designed primers from a plasmid kindly provided by Dr. Michael David Tyers (University of Montreal). Once amplified, a MoClo reaction was performed to obtain the final integrative cassette. This cassette was composed as follows: • Type 1: ConLS 3' connector. • Type 2: TDH3 gene promoter (strong and constitutive expression). • Type 3: Amplified human CLPP gene. • Type 4: ADH1 gene terminator. • Type 5: ConR1 5' connector. • Type 6: LEU2 gene as selectable marker for yeast. • Type 7: 3' HO gene homology sequence for yeast integration. • Type 8a: KanR-ColE1 sequence for bacterial amplification and antibiotic resistance. • Type 8b: 5' HO gene homology sequence for yeast integration.
Digestion patterns with several restriction enzymes were carried out to confirm the success of the MoClo system. An extra restriction enzyme reaction (Notl) was performed to linearize the DNA fragment and deplete the bacterial part.
(§1) These cells contain mutants in YRS1, YRR1, PDR1 and PDR3 genes, which are involved in polydrug and pleiotropic resistance networks.
Yeast cells were transformed with the linearized cassette and transformant colonies were selected on minimum media without leucine. Independent clones were checked by PCR and positive ones were stored at -80 °C until use.
(§2) The yeast (both HsCpIP+ and HsCIpP-) are incubated in petri dishes with YPD (Yeast extract peptone dextrose) at 25 °C overnight, after which a colony is isolated, suspended in a flask with fresh YPD and incubating again under the same conditions but with agitation. […] 100 µl of this solution was then placed into the appropriated wells of a standard 96-well plate. Stock solutions (DMSO, 10 mM) of the compounds to be tested are diluted in YPD to 2X of their final concentrations to be tested, and 100 µl added to the appropriate wells. 100 µl of YPD was added to wells designated as the negative control wells, while ONC206 (0.5 µM) was used as the positive control. Once all compounds were added to the plate, an initial T = 0 absorbance value was recorded at 600 Nm. The plate was then incubated at 25 °C with gentle shaking for 24 h. The plates can either be read at multiple time points using a TECAN Spark® Multimode Microplate Reader, or at the end of the experiment using a standard spectrophotometer.
(§3) Table 2: Growth inhibition (GI50) values for compounds of the present invention in yeast containing HsCIpP, and yeast without HsCIpP.

Yeast - HsCIpP = test: Yeast growth inhibition screen, yeast without human ClpP (selectivity control); type: cell-based; details: Saccharomyces cerevisiae, read-out: Yeast - HsCIpP GI50
Method: as §1, §2, §3

4T1 = test: MTT cell viability assay, 4T1; type: cell-based; details: Mus musculus, read-out: IC50 4T1 48 H
Method: This a mouse epithelial breast cancer cell line classified as being triple negative and mimics human breast cancer; stage IV.
Cell viability was assayed by measuring the mitochondrial reduction of the tetrazolium salt 3-(4,5-methyltiazol-2yl)-2,5diphenyl-tetrazolium bromide] (MTT) (Applichen; A2231,0010) [Mosmann T. J Immunol Methods. […] Oncogene. […] Cells were seeded at a density according to their exponential growth phase (normally 1000 to 5000/well). The cells were cultured at 37 °C in the dark in air containing 5% CO2. After 24h either vehicle (0.05% DMSO), or drug, was added to culture medium at the indicated concentrations (10 to 0,01microM). […] The medium was then removed, and the precipitated formazan was solubilized by the addition of DMSO (200 µL).

MDA-MB-231 = test: MTT cell viability assay, MDA-MB-231; type: cell-based; details: Homo sapiens, MDA-MB-231 cells, 72 H, average of at least two independent experiments
Method: This a human breast cancer cell line derived from a metastatic site from a person.
(§4) Cell viability was assayed by measuring the mitochondrial reduction of the tetrazolium salt 3-(4,5-methyltiazol-2yl)-2,5diphenyl-tetrazolium bromide] (MTT) (Applichen; A2231,0010) [Mosmann T. J Immunol Methods. […] Oncogene. […] Cells were seeded at a density according to their exponential growth phase (normally 1000 to 5000/well). The cells were cultured at 37 °C in the dark in air containing 5% CO2. After 24h either vehicle (0.05% DMSO), or drug, was added to culture medium at the indicated concentrations (10 to 0,01microM). After another 72 h, MTT (0.3 mg/ml) was added to cells, followed by incubation for 2-4h at 37 °C in the dark. The medium was then removed, and the precipitated formazan was solubilized by the addition of DMSO (200 µL).

U2 OS = test: MTT cell viability assay, U2 OS; type: cell-based; details: Homo sapiens, U2OS, U2 OS cells, 72 H, average of at least two independent experiments
Method: U2 OS [American Type Culture Collection (ATCC) reference number HTB-96]. This is a human bone cancer (a moderately differentiated sarcoma) cell derived from an osteosarcoma patient.
as §4

DU-145 = test: MTT cell viability assay, DU-145; type: cell-based; details: Homo sapiens, DU-145 cells, 72 H, average of at least two independent experiments
Method: This a human prostate cancer cell line derived from a metastatic site (brain) of a person.
as §4

PANC1 = test: MTT cell viability assay, PANC1; type: cell-based; details: Homo sapiens, PANC-1, PANC1 cells, 72 H, average of at least two independent experiments
Method: This a human cancer cell line derived from the pancreas of a person.
as §4

MDA-MB-231 cells = test: cells; details: for GI50 / CC50: Homo sapiens, MDA-MB-231, 72 h; for CC50: read-out: LC50; for Result / TGI50: MDA-MB-231 72 H, SRB; for Result: cytostatic or not; for TGI50: total growth inhibition concentration
Method: In order to measure the cell population at the time zero (Tz) a plate of cells was stained with SRB 24 hours after seeding. The cell monolayers are fixed with cold 5% (w/v) trichloroacetic acid for 60 minutes at 4°C. The excess of trichloroacetic acid is removed by washing five times with distilled water. Sulforhodamine B (SRB) solution [50 µL at 0.4%(w/v) in 1% acetic acid] is added to each well and plates are incubated for 8 minutes at room temperature. The excess dye is removed by washing five times with 1% (v/v) acetic acid. The bound stain is subsequently solubilized with (100 µL) 10 mM trizma base and the absorbance is read on automated plate reader at a wavelength of 550 nm.
Compounds at various concentrations were added to an identical cell-seeded (non-treated) plate and incubated at 37°C (5% CO2) for an additional […]. Cells were fixed and stained following the same protocol. The measurement of the cell population after 72 hours in the presence of the drug is (Ti). Several wells in the same plate were treated with the control vehicle.
Using the absorbance measurements, time zero (Tz), control growth (C), and test growth in the present of the compound (Ti) the percentage growth inhibition is calculated as: • [(Ti-Tz)/(C-Tz)] x 100 for concentrations for which Ti >/= Tz • [(Ti-Tz)/Tz] x 100 for concentrations for which Ti <Tz
These values were determined using GraphPad software v5 (San Diego, CA).

[1] = yeast without HsCIpP, 24 h at 25 °C, absorbance at 600 nm
[2] = 4T1 cells, 48 H, MTT, average of at least two independent experiments

Row | Compound | GI50 (Yeast + HsCIpP) [nM] | GI50 (Yeast - HsCIpP; [1]) [nM] | IC50 (4T1; [2]) [nM] | IC50 (MDA-MB-231) [nM] | IC50 (U2 OS) [nM] | IC50 (DU-145) [nM] | IC50 (PANC1) [nM] | GI50 (MDA-MB-231 cells) [nM] | CC50 (MDA-MB-231 cells) [nM] | Result (MDA-MB-231 cells) | TGI50 (MDA-MB-231 cells) [µM] | GI50 (Yeast - HsCIpP; 24 h) [nM] | IC50 (4T1; 4T1, 48 h) [nM]
1 | N#Cc1cccc(CN2CCN3CCN(Cc4ccc(Cl)cc4)C(=O)C3C2)c1 (centres unmarked) [Compound 3] | 65 | > 10000 | < 100 | < 100 | < 100 | < 100 | < 100 | < 100 | > 10000 | Cytostatic | >10 |  | 
2 | O=C1C2CN(Cc3cccc(F)c3)CCN2CCN1Cc1ccc(Cl)cc1 (centres unmarked) [Compound 6] | 60 | > 10000 | 150 | 190 | 300 | 250 | 190 |  |  |  |  |  | 
3 | O=C1C2CN(Cc3ccc(C(F)(F)F)cc3)CCN2CCN1Cc1ccc(C(F)(F)F)cc1 (centres unmarked) [Compound 14, 8-(4-trifluoromethylbenzyl)-2-(4-(trifluoromethyl)benzyl)hexahydro-2H-pyrazino[1,2-a]pyrazin-1(6H)-one] | 2580 |  | 2220 |  |  |  | 240 |  |  |  |  | > 10000 | 
4 | N#Cc1cccc(CN2CCN3CCN(Cc4ccc(C(F)(F)F)cc4)C(=O)C3C2)c1 (centres unmarked) [Compound 12] | 75 | > 10000 | < 100 | < 100 | 200 | 100 | < 100 | < 100 | > 10000 | Cytostatic | >10 |  | 
5 | O=C1C2CN(Cc3cccc(F)c3)CCN2CCN1Cc1ccc(F)cc1 (centres unmarked) [Compound 5] | 140 | > 10000 | 190 | 240 | 400 | 300 | 250 |  |  |  |  |  | 
6 | N#Cc1cccc(CN2CCN3CCN(Cc4cccc(Cl)c4)C(=O)C3C2)c1 (centres unmarked) [Compound 2] | 120 | > 10000 | 165 | 145 | 250 | 250 | 140 |  |  |  |  |  | 
7 | O=C1C2CN(Cc3ccccc3)CCN2CCN1Cc1ccc(F)cc1 (centres unmarked) [Compound 11] | 620 | > 10000 | 515 | 490 | 800 | 410 | 600 |  |  |  |  |  | 
8 | O=C1C2CN(CCCCC(F)(F)F)CCN2CCN1Cc1ccc(C(F)(F)F)cc1 (centres unmarked) [Compound 8] | 1650 | > 10000 | 310 | 400 | 2000 |  | 350 |  |  |  |  |  | 
9 | O=C1C2CN(Cc3ccccc3)CCN2CCN1Cc1cccc(Cl)c1 (centres unmarked) [Compound 9] | 690 | > 10000 | 930 | 935 | 1140 | 1080 | 830 |  |  |  |  |  | 
10 | N#Cc1cccc(CN2CCN3CCN(Cc4ccc(F)cc4)C(=O)C3C2)c1 (centres unmarked) [Compound 1] | 150 | > 10000 | 103 | 120 | 220 | 200 | 195 |  |  |  |  |  | 
11 | O=C1C2=C(CCN(Cc3ccccc3)C2)N2CCN=C2N1Cc1ccc(F)cc1F [ONC206, reference compound] | 4560 |  | 600 | 600 | 800 | 370 | 300 | 730 |  | Cytostatic | >10 | > 10000 | 
12 | O=C1C2CN(CCCCC(F)(F)F)CCN2CCN1Cc1ccc(F)cc1 (centres unmarked) [Compound 7] | 2050 | > 10000 | 340 | 430 | 500 | 500 | 330 |  |  |  |  |  | 
13 | O=C1C2CN(Cc3ccccc3)CCN2CCN1Cc1ccc(C(F)(F)F)cc1 (centres unmarked) [Compound 10] | 180 | > 10000 | 650 | 635 | 1000 | 640 | 640 |  |  |  |  |  | 
14 | O=C1C2CN(Cc3cccc(F)c3)CCN2CCN1Cc1cccc(C(F)(F)F)c1 (centres unmarked) [Compound 13, 8-(3-fluorobenzyl)-2-(3-(trifluoromethyl)benzyl)hexahydro-2H-pyrazinof1,2-alpyrazin-1(6H)-one] | 40 | > 10000 | 170 | 190 | 300 | 250 | 165 | 420 | > 10000 | Cytostatic | >10 |  | 
15 | Cc1ccccc1CN1C(=O)C2=C(CCN(Cc3ccccc3)C2)N2CCN=C12 [ONC201, reference compound] |  |  |  | 2280 | 4800 | 1710 | 1720 |  |  | Cytostatic | >10 |  | 2220
